Among the data in paper PMC9068721, “Evaluation of MxOy/fucoidan hybrid system and their application in lipase immobilization process” (Scientific Reports, 2022) are Km values, retold here.

In this test the test system is T1, lipase from Aspergillus niger (LAN).
T1 construct: gene lipA; commercial Sigma-Aldrich lipase preparation from Aspergillus niger, free (not immobilized)
Kind of test: p-nitrophenol release at […] nm, Hanes-Woolf plot. It is filed as biochemical. Conditions: free enzyme, 30 °C, 2 min, 1000 rpm; substrate solution range printed as 0.005–1.5 M; apparent.

SMILES strings stand for the structures.

For the compound `CCCCCCCCCCCCCCCC(=O)Oc1ccc([N+](=O)[O-])cc1` [p-nitrophenyl palmitate], the Km came to 580 ± 20 µM.

As usually defined, the Km is the substrate concentration at which the rate is half of its maximum.
